Data published in patent US8598344B2, “CDKI pathway inhibitors and uses thereof” (Senex Biotechnology, priority 2009, dated 2013).
Read-outs that look alike come from different tables or passages of the source.

Assays:
[1] = system: induction of transcription by p21 (CDKI pathway, CMV promoter-GFP) in HT1080 fibrosarcoma cells; experiment: Cellular assay for CDKI pathway inhibition: CMV-GFP induction by IPTG-inducible p21 in HT1080 reporter cells; format: cell-based, human
Protocol: Briefly, the reporter cell line described in the above-referenced application, which carries IPTG (isopropyl-β-thio-galactoside)-inducible p21 gene together with a p21-inducible promoter driving the expression of Green Fluorescent Protein (GFP) was plated in 96-well plates, at 2000 cells per well for the no-IPTG arm of the assay and at 5000 cells per well for the IPTG arm of the assay. To induce the maximal levels of p21, IPTG was added to 50 μM concentration. Serial 2-fold dilutions of the tested compounds were added in quadruplicates to wells with and without IPTG, ˜10 min after IPTG addition.
This assay is based on the induction of green fluorescent protein (GFP) expression from the cytomegalovirus (CMV) promoter in human HT1080 fibrosarcoma cells that express CDKI p21 from an isopropyl-(3-thio-galactoside (IPTG)-inducible promoter. The compound activity as a CDKI pathway inhibitor is measured by its ability to prevent the stimulation of the CMV promoter upon the addition of p21-inducing IPTG. CMV promoter activity is measured by the ratio of GFP fluorescence to the relative cell number, as determined by staining cellular DNA with Hoechst 33342. This assay was conducted in two modes. […]

CSNK1G2 = molecular target: T1, CSNK1G2 (Homo sapiens, UniProt P78368); experiment: KinomeScan competition binding assay; conditions: 10 μM compound
T1 construct: purchased KinomeScan, a division of Ambit Biosciences
Text: (§1) This similarity led us to test SNX14 for the ability to inhibit 285 kinases, using the services of KinaseProfiler of Millipore Corporation (285 kinases). […] The KINOMEscan assay has been described in detail in Fabian et al., Nat. Biotechnol. 23: 329 (2005) and Karaman et al., Nat. Biotechnol. 26: 127 (2008).
(§2) The KinomeScan assay is based on a competition binding assay that quantitatively measures the ability of a compound to compete with an immobilized, ATP site directed ligand. The assay is performed by combining three components: DNA-tagged kinase; immobilized ligand; and a test compound. The ability of the test compound to compete with the immobilized ligand is measured via quantitative PCR of the DNA tag. […] The CDKs tested by Millipore for inhibition with SNX14 included CDK1, CDK2, CDK3, CDK5, CDK7 and CDK9; none of these were inhibited to less than 49 percent of control (POC) activity. The CDKs tested by KinomeScan for the effect of Compound 1 included CDK2, CDK3, CDK4, CDK5, CDK7, CDK8, CDK9 and CDK19; aside from CDK8 and CDK19, the strongest inhibited CDK was CDK7 (33% POC binding). To determine the inhibition of which kinases correlates with the biological activity of SNX2-class compounds, we tested eight additional compounds of the SNX2 family, which gave different IC50 values in the cellular assays, for the ability to affect 24 kinases that were most susceptible to compound 1, through the services of KinomeScan. […] We have also determined the binding constant (Kd) for SNX14, compound 1, compound 20, compound 26, compound 43 and compound 14 in kinase assays for CDK8 and CDK19 (Table 1).

CIT = molecular target: T2, CIT (Homo sapiens, UniProt O14578); experiment: KinomeScan competition binding assay; conditions: 10 μM compound
T2 construct: purchased KinomeScan, a division of Ambit Biosciences
Text: as §1, §2

CLK4 = molecular target: T3, CLK4 (Homo sapiens, UniProt Q9HAZ1); experiment: KinomeScan competition binding assay; conditions: 10 μM compound
T3 construct: purchased KinomeScan, a division of Ambit Biosciences
Text: as §1, §2

HIPK2 = molecular target: T4, HIPK2 (Homo sapiens, UniProt Q9H2X6); experiment: KinomeScan competition binding assay; conditions: 10 μM compound
T4 construct: purchased KinomeScan, a division of Ambit Biosciences
Text: as §1, §2

MAP4K2 = molecular target: T5, MAP4K2 (Homo sapiens, UniProt Q12851); experiment: KinomeScan competition binding assay; conditions: 10 μM compound
T5 construct: purchased KinomeScan, a division of Ambit Biosciences
T5 sequence (Q12851 1-820): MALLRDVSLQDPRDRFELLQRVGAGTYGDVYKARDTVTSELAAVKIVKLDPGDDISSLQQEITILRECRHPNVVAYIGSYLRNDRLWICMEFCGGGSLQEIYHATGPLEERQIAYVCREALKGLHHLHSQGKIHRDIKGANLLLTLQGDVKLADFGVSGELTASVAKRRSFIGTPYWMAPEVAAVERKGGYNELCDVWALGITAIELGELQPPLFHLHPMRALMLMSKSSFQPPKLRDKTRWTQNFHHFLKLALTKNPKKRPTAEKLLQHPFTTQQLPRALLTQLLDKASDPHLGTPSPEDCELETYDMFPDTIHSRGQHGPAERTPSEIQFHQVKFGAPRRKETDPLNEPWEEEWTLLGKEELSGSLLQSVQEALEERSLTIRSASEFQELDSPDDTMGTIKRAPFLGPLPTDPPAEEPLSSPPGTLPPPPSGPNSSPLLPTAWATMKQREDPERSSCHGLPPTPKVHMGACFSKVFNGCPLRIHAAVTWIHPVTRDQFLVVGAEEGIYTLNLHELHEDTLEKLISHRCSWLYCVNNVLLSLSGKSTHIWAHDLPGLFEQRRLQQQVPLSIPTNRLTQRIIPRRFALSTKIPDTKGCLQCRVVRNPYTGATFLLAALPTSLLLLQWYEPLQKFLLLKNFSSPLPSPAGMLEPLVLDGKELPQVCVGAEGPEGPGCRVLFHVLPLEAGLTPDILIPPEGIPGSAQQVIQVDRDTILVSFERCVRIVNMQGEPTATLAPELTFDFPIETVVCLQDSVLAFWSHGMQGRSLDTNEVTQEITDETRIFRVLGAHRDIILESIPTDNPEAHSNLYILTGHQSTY
Text: as §1, §2

PIK3CA (I800L) = molecular target: T6, PIK3CA (I800L) (Homo sapiens, UniProt P42336, I800L); experiment: KinomeScan competition binding assay; conditions: 10 μM compound
T6 construct: purchased KinomeScan, a division of Ambit Biosciences
Text: as §1, §2

CDK8 = molecular target: T7, CDK8 (Homo sapiens, UniProt P49336); experiment: KinomeScan competition binding assay; conditions: for POC ligand binding, CDK8: 10 μM compound; for Kd: read-out: CDK8 inhibition (Kd); for inhibition of CDK8: 10 μM
T7 construct: purchased KinomeScan, a division of Ambit Biosciences
Text: as §1, §2

CDK19 = molecular target: T8, CDK19 (Homo sapiens, UniProt Q9BWU1); experiment: KinomeScan competition binding assay; conditions: for POC ligand binding, CDK19: 10 μM compound; for Kd: read-out: CDK19 inhibition (Kd); for inhibition of CDK19: 10 μM
T8 construct: purchased KinomeScan, a division of Ambit Biosciences
Text: as §1, §2

CLK1 = molecular target: T9, CLK1 (Homo sapiens, UniProt P49759); experiment: KinomeScan competition binding assay; conditions: 10 μM compound
T9 construct: purchased KinomeScan, a division of Ambit Biosciences
Text: as §1, §2

STK16 = molecular target: T10, STK16 (Homo sapiens, UniProt O75716); experiment: KinomeScan competition binding assay; conditions: 10 μM compound
T10 construct: purchased KinomeScan, a division of Ambit Biosciences
Text: as §1, §2

[2] = Table 1, IC50 calculated on the basis of the maximal inhibition produced by the highest doses, IPTG mode (50 μM or 2 μM) not stated, read-out: Cell-based assay (IC50)
[3] = Table 2, calculated assuming maximal effect = zero GFP/Hoechst, no unit in table, μM from FIG. 8 legend, no activity at 40 μM given as >100, read-out: IC50 in the cellular assay

T4 sequence (Q9H2X6 whole entry): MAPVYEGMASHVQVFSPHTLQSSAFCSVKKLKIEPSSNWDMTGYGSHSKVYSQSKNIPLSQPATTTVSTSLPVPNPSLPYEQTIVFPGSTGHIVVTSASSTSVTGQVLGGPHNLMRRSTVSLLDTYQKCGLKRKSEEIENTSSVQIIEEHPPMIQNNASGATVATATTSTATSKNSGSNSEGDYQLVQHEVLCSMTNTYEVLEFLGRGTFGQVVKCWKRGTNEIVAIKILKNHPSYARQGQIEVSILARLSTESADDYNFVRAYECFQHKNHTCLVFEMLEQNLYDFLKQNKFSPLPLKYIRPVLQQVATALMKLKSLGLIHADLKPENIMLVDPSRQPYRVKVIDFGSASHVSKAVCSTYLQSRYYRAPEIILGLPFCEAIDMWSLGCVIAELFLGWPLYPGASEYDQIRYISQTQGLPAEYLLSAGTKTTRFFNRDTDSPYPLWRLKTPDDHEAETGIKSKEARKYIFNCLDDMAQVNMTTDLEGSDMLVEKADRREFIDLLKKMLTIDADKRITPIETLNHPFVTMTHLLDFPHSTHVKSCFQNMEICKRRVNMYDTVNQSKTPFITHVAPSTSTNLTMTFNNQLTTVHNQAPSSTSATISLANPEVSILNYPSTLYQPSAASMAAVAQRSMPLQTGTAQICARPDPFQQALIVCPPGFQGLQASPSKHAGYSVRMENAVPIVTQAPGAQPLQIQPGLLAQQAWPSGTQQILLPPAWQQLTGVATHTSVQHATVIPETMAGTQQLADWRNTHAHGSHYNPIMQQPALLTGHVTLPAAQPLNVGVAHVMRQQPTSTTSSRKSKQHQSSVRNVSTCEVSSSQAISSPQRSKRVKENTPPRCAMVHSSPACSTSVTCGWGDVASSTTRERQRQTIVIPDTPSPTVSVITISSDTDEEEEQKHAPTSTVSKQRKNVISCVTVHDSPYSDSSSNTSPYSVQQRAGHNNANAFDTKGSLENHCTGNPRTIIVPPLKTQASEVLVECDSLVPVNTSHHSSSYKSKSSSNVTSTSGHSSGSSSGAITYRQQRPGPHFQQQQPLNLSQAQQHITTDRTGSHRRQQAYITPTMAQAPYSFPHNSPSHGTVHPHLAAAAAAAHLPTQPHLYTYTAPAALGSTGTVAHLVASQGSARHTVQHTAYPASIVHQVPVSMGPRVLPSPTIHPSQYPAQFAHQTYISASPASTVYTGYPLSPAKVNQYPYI
T9 sequence (P49759 whole entry): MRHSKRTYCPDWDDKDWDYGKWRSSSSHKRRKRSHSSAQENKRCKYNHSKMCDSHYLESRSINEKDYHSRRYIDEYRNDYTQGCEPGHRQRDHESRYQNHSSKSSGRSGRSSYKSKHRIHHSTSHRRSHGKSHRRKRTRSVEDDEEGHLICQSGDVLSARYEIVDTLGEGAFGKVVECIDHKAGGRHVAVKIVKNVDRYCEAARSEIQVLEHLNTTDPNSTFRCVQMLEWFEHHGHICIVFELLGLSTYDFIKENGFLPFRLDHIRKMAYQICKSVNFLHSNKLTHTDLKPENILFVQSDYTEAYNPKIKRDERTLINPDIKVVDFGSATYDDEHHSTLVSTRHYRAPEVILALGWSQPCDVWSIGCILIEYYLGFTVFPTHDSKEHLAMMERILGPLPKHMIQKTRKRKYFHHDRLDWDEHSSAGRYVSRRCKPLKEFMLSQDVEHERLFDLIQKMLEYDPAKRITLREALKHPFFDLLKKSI
T8 sequence (Q9BWU1 whole entry): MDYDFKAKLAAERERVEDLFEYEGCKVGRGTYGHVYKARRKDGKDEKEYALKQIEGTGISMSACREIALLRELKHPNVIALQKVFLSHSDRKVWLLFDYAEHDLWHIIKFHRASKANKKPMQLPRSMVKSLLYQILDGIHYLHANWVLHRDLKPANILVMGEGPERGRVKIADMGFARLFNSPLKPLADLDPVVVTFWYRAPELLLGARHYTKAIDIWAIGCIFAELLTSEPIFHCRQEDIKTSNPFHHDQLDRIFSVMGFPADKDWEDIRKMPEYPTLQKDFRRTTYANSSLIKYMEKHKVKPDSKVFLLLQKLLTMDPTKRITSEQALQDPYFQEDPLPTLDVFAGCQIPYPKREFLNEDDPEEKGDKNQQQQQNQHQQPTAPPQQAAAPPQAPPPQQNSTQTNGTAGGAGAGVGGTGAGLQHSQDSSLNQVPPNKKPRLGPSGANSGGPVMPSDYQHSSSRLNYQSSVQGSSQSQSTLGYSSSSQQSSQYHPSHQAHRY
T6 sequence (P42336 whole entry I800L): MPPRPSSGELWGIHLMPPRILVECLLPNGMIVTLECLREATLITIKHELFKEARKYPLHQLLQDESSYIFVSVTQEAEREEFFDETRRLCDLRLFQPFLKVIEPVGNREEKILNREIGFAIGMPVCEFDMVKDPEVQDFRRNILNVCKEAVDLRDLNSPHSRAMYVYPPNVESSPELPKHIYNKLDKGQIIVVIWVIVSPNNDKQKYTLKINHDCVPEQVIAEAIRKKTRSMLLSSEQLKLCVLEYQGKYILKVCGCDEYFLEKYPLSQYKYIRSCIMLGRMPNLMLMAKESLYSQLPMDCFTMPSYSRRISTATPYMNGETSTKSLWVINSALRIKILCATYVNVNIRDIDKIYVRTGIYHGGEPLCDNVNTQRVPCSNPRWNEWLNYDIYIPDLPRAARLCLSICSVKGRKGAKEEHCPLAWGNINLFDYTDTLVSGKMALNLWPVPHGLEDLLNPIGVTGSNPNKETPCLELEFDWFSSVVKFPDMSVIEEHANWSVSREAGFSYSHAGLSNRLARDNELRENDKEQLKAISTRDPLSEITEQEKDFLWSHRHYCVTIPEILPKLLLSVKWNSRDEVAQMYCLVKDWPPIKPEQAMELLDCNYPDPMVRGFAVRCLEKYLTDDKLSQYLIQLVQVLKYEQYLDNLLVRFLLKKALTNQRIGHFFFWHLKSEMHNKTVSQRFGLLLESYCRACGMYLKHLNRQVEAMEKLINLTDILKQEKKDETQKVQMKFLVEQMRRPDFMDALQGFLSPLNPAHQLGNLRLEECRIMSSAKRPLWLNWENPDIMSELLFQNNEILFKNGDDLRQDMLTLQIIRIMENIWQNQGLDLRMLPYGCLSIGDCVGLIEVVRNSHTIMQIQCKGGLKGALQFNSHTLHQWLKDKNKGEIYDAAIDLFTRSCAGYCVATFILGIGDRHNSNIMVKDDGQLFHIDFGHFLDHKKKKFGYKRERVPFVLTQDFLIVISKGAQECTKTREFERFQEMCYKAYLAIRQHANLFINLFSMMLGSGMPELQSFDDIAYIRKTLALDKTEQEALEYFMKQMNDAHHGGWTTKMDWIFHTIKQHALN
T3 sequence (Q9HAZ1 whole entry): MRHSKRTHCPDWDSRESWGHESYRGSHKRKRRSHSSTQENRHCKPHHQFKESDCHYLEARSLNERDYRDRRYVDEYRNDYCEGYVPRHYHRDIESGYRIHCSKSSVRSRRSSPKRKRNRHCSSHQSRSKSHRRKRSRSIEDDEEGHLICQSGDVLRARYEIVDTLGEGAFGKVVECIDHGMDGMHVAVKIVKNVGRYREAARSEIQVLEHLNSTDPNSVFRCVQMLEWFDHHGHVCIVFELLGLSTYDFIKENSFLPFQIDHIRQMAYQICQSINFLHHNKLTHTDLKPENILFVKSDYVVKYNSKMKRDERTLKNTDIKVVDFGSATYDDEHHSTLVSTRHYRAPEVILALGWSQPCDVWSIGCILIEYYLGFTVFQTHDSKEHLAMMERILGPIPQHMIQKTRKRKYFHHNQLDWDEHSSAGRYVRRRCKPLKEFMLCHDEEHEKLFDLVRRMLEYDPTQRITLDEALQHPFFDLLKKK
T7 sequence (P49336 whole entry): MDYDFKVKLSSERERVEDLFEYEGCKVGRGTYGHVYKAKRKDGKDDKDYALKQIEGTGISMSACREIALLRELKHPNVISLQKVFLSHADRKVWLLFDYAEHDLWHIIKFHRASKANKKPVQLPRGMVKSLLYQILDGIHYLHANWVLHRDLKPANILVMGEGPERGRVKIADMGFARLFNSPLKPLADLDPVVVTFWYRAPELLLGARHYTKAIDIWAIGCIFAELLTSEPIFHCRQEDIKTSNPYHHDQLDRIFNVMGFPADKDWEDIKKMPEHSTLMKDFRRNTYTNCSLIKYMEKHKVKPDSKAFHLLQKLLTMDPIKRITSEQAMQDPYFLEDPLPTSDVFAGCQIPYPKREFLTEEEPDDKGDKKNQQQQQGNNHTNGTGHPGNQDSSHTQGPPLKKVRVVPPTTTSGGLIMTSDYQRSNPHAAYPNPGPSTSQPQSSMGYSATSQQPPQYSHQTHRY
T10 sequence (O75716 whole entry): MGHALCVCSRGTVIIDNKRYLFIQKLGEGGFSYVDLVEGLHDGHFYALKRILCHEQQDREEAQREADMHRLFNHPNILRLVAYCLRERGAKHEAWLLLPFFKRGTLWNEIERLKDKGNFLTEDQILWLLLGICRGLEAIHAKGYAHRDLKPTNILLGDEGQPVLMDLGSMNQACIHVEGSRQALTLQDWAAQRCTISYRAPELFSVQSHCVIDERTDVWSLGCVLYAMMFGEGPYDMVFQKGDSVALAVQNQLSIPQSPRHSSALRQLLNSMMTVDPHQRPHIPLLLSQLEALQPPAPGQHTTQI
T1 sequence (P78368 whole entry): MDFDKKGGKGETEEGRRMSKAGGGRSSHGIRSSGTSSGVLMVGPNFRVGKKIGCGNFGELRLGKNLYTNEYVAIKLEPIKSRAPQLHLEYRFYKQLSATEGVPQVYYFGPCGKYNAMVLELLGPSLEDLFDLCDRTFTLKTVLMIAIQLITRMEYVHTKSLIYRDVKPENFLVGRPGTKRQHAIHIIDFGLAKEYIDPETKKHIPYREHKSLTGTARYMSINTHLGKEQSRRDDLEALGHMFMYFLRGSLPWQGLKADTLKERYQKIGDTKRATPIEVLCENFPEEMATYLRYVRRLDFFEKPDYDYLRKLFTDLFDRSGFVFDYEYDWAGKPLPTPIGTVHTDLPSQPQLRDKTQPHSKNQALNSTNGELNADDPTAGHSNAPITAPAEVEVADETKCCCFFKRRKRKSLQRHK

SMILES | IC50 [1, 2] [µM] | IC50 [1, 3] [µM] | Kd (CDK8) [nM] | Kd (CDK19) [nM] | POC ligand binding, CSNK1G2 (CSNK1G2) [POC] | POC ligand binding, CIT (CIT) [POC] | POC ligand binding, CLK4 (CLK4) [POC] | POC ligand binding, HIPK2 (HIPK2) [POC] | POC ligand binding, MAP4K2 (MAP4K2) [POC] | POC ligand binding, PIK3CA (I800L) (PIK3CA (I800L)) [POC] | POC ligand binding, CDK8 (CDK8) [POC] | POC ligand binding, CDK19 (CDK19) [POC] | POC ligand binding, CLK1 (CLK1) [POC] | POC ligand binding, STK16 (STK16) [POC] | other results
N#Cc1ccc2ncnc(NCc3ccc4ccccc4c3)c2c1 [compound 43] | 0.22 | 0.95 | 240 | 190 |  |  |  |  |  |  |  |  |  |  | POC ligand binding, CSNK1G2 (CSNK1G2; 10 µM): 53 POC; POC ligand binding, CIT (CIT; 10 µM): 14 POC; POC ligand binding, CLK4 (CLK4; 10 µM): 9.6 POC; POC ligand binding, HIPK2 (HIPK2; 10 µM): 30 POC; POC ligand binding, MAP4K2 (MAP4K2; 10 µM): 28 POC; POC ligand binding, PIK3CA (I800L) (PIK3CA (I800L); 10 µM): 87 POC; POC ligand binding, CDK8 (CDK8; 10 µM): 1.6 POC; POC ligand binding, CDK19 (CDK19; 10 µM): 0.25 POC; POC ligand binding, CLK1 (CLK1; 10 µM): 9 POC; POC ligand binding, STK16 (STK16; 10 µM): 30 POC
CCCNc1ncnc2ccc(N3CCOCC3)cc12 [compound 46] |  | > 100 |  |  | 55 | 86 | 24 | 30 | 82 | 83 | 100 | 100 | 48 | 80 | 
N#Cc1ccc2ncnc(NCc3ccc(Cl)cc3)c2c1 [compound 20] | 0.199 | 0.6 | 240 | 99 | 62 | 7.9 | 11 | 28 | 21 | 73 | 0.15 | 0 | 12 | 25 | 
N#Cc1ccc2ncnc(NCCc3ccc4ccccc4c3)c2c1 [compound 26] | 0.769 | 1.15 | 570 | 160 | 57 | 40 | 26 | 73 | 28 | 81 | 0 | 5.6 | 32 | 16 | inhibition of CDK8 (CDK8): ~100%; inhibition of CDK19 (CDK19): 94.6%
N#Cc1ccc2ncnc(NCCc3ccccc3)c2c1 [compound 1] | 0.641 | 1.3 | 830 | 310 | 16 | 15 | 8 | 18 | 12 | 17 |  | 0.05 | 4.2 | 4.2 | IC50 ([1]; read-out: IC50, p21 induced by 8 μM IPTG, 8 μM IPTG, 72 hours): 0.57 µM; inhibition of CDK8 (CDK8): > 99%; inhibition of CDK19 (CDK19): > 99%
COc1ccc2ncnc(NCCc3ccccc3)c2c1 [compound 44] |  | 11 |  |  | 80 | 18 | 17 | 62 | 35 | 86 | 24 | 9.2 | 17 | 70 | 
CC(C)CNc1ncnc2ccc(C(F)(F)F)cc12 [compound 45] |  | 12.8 |  |  | 53 | 50 | 7.8 | 20 | 12 | 83 | 37 | 21 | 8.4 | 17 | 
N#Cc1ccc2ncnc(NCc3ccc4ccccc4c3)c2c1 [compound 14] | 2.54 | 1.2 | 2500 | 1100 |  |  |  |  |  |  |  |  |  |  | POC ligand binding, CSNK1G2 (CSNK1G2; 10 µM): 43 POC; POC ligand binding, CIT (CIT; 10 µM): 9.8 POC; POC ligand binding, CLK4 (CLK4; 10 µM): 16 POC; POC ligand binding, HIPK2 (HIPK2; 10 µM): 34 POC; POC ligand binding, MAP4K2 (MAP4K2; 10 µM): 16 POC; POC ligand binding, PIK3CA (I800L) (PIK3CA (I800L); 10 µM): 62 POC; POC ligand binding, CDK8 (CDK8; 10 µM): 0.4 POC; POC ligand binding, CDK19 (CDK19; 10 µM): 0.1 POC; POC ligand binding, CLK1 (CLK1; 10 µM): 18 POC; POC ligand binding, STK16 (STK16; 10 µM): 2.4 POC
